Drawing on ChEMBL document CHEMBL3124838, “Discovery of 6-aryl-azabenzimidazoles that inhibit the TBK1/IKK-ε kinases” (Bioorg Med Chem Lett, 2014), this text covers Activity for 3 compounds.

For test [1], the target named is Mitogen-activated protein kinase 8 (Homo sapiens) (UniProt P45983). The test is described as follows: Inhibition of human JNK1alpha1 assessed as residual activity at 1 uM relative to control.
Test [2] deals with Insulin receptor (Homo sapiens) (UniProt P06213). Nature of the test: Inhibition of human activated IR assessed as residual activity at 1 uM relative to control.
Test [3] has as its target Glycogen synthase kinase-3 alpha (Homo sapiens) (UniProt P49840). The test is described as follows: Inhibition of human GSK3alpha assessed as residual activity at 1 uM relative to control.
In test [4] the target is Protein kinase C theta type (Homo sapiens) (UniProt Q04759). Nature of the test: Inhibition of human PKC-theta assessed as residual activity at 1 uM relative to control.
For test [5], the target named is T1, Phosphatidylinositol 5-phosphate 4-kinase type-2 alpha (Homo sapiens) (UniProt P48426).
T1 sequence (whole entry): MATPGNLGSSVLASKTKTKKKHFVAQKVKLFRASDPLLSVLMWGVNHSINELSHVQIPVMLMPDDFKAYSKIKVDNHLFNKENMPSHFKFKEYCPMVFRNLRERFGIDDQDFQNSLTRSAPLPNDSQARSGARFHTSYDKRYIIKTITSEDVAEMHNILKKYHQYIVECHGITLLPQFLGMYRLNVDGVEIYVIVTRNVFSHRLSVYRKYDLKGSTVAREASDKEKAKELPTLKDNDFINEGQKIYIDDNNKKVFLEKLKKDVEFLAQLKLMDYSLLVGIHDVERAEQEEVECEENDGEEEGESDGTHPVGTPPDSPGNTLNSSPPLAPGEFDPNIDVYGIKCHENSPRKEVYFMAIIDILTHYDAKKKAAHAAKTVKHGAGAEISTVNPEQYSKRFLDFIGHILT
Nature of the test: Inhibition of human PIP4K2alpha assessed as residual activity at 1 uM relative to control.

Test [6] deals with Insulin-like growth factor 1 receptor (Homo sapiens) (UniProt P08069). Nature of the test: Inhibition of human activated IGF-1R assessed as residual activity at 1 uM relative to control.
For test [7], the target named is Insulin receptor-related protein (Homo sapiens) (UniProt P14616). Nature of the test: Inhibition of human IRR assessed as residual activity at 1 uM relative to control.
Test [8] has as its target Tyrosine-protein kinase Lck (Homo sapiens) (UniProt P06239). The test is described as follows: Inhibition of human LCK assessed as residual activity at 1 uM relative to control.
Test [9] concerns the target T2, Serine/threonine-protein kinase ULK2 (Homo sapiens) (UniProt Q8IYT8).
T2 sequence (whole entry): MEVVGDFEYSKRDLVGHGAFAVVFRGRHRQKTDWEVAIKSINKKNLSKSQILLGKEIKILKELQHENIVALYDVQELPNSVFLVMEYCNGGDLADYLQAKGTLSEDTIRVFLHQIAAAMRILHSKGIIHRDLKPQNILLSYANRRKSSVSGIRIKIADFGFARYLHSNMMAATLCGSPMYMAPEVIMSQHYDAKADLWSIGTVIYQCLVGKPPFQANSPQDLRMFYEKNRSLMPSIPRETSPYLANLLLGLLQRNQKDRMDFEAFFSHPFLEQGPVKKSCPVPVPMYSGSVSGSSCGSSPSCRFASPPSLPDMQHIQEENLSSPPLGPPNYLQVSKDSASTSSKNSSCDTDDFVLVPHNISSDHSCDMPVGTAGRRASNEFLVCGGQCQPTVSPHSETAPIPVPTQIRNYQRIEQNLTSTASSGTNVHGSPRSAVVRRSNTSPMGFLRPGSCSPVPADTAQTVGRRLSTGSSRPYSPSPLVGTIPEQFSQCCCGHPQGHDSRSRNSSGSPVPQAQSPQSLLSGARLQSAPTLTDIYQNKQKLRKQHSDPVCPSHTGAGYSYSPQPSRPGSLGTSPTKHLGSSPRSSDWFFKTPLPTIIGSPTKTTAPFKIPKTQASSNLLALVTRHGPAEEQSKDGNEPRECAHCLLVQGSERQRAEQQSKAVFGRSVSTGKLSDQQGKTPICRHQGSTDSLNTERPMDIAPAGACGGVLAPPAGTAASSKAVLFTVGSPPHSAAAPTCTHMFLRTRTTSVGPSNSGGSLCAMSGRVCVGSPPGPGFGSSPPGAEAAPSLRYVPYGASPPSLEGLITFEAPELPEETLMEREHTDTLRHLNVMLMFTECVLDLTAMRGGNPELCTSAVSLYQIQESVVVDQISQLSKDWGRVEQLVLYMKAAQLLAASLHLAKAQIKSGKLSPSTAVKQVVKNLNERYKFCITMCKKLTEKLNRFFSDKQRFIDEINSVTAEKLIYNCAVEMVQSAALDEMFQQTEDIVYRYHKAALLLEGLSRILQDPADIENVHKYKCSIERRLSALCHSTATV
The test is described as follows: Inhibition of human ULK2 assessed as residual activity at 1 uM relative to control.

Test [10] concerns the target Mitogen-activated protein kinase kinase kinase 9 (Homo sapiens) (UniProt P80192). The test is described as follows: Inhibition of human MLK1 assessed as residual activity at 1 uM relative to control.
Test [11] has as its target Vascular endothelial growth factor receptor 1 (Homo sapiens) (UniProt P17948). The test is described as follows: Inhibition of human FLT1 assessed as residual activity at 1 uM relative to control.
For test [12], the target named is MAP kinase-interacting serine/threonine-protein kinase 2 (Homo sapiens) (UniProt Q9HBH9). Nature of the test: Inhibition of human MNK2 assessed as residual activity at 1 uM relative to control.
The target in test [13] is T3, Serine/threonine-protein kinase 4 (Homo sapiens) (UniProt Q13043).
T3 sequence (whole entry): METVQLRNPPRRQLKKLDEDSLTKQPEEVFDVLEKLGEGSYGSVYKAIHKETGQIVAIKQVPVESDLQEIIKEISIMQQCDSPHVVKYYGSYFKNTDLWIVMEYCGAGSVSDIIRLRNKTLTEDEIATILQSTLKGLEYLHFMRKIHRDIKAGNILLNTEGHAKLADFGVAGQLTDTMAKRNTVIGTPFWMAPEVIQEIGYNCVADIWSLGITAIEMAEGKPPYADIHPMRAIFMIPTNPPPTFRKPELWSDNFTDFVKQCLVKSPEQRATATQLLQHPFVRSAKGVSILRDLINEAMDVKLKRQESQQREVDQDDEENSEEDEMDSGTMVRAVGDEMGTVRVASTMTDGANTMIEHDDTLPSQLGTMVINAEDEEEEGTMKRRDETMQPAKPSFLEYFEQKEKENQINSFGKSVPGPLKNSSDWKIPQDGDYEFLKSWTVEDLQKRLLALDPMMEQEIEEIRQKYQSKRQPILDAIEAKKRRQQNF
Nature of the test: Inhibition of human MST1 assessed as residual activity at 1 uM relative to control.

Test [14] has as its target Serine/threonine-protein kinase PLK1 (Homo sapiens) (UniProt P53350). Nature of the test: Inhibition of human PLK1 assessed as residual activity at 1 uM relative to control.
The target of test [15] is Fibroblast growth factor receptor 4 (Homo sapiens) (UniProt P22455). The test is described as follows: Inhibition of human FGFR4 assessed as residual activity at 1 uM relative to control.
In test [16] the target is Serine/threonine-protein kinase mTOR (Homo sapiens) (UniProt P42345). The test is described as follows: Inhibition of human mTOR assessed as residual activity at 1 uM relative to control.

MAP kinase-interacting serine/threonine-protein kinase 2 (Homo sapiens), sequence (Q9HBH9 whole entry, looked up): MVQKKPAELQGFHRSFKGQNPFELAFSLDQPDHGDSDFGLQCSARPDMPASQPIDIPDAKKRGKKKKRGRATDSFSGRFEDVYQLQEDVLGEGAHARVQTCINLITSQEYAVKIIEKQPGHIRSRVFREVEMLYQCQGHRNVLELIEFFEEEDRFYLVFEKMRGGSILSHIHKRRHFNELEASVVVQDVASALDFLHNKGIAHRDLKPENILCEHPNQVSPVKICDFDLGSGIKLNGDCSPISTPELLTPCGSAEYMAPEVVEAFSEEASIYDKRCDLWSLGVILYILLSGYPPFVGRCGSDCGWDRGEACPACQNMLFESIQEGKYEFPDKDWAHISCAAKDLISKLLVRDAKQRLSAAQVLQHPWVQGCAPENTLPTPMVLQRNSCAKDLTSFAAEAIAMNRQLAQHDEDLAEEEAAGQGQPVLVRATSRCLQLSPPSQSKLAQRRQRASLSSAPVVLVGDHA
Insulin receptor-related protein (Homo sapiens), sequence (P14616 27-742 limits assumed): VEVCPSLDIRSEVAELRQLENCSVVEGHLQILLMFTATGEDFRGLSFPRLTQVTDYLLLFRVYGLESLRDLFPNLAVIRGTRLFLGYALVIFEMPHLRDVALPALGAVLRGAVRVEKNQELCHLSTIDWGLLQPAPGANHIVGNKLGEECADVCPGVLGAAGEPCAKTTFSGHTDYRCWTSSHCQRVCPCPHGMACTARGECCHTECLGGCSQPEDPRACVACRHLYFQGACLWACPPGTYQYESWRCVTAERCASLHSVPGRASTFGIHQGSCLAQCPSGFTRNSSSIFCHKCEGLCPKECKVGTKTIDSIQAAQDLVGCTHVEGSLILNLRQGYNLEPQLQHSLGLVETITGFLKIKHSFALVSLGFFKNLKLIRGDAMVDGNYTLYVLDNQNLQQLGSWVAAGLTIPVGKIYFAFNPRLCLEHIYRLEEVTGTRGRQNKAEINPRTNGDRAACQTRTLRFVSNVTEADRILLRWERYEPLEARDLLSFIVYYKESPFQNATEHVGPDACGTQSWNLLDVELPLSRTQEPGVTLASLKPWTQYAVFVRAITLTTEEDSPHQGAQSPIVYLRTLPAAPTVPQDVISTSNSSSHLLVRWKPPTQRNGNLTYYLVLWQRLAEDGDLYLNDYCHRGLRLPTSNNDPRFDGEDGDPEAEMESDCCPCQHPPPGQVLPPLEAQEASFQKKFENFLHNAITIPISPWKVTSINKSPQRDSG
Insulin receptor-related protein (Homo sapiens), sequence (P14616 747-1297 limits assumed): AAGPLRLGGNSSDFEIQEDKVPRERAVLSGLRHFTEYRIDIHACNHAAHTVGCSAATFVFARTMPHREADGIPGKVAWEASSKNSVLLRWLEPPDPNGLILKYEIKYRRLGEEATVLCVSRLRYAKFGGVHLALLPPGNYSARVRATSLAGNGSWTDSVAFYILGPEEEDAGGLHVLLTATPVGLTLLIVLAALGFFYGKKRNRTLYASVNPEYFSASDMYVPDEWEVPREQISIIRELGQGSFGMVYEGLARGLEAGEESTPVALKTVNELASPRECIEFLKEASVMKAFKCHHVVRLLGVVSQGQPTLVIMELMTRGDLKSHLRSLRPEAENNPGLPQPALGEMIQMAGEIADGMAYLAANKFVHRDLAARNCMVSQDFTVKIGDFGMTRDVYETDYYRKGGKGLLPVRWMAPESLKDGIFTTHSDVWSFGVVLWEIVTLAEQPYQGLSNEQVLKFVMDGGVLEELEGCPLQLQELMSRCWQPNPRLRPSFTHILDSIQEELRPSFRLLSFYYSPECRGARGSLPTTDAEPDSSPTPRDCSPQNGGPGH
Insulin receptor (Homo sapiens), sequence (P06213 28-758 limits assumed): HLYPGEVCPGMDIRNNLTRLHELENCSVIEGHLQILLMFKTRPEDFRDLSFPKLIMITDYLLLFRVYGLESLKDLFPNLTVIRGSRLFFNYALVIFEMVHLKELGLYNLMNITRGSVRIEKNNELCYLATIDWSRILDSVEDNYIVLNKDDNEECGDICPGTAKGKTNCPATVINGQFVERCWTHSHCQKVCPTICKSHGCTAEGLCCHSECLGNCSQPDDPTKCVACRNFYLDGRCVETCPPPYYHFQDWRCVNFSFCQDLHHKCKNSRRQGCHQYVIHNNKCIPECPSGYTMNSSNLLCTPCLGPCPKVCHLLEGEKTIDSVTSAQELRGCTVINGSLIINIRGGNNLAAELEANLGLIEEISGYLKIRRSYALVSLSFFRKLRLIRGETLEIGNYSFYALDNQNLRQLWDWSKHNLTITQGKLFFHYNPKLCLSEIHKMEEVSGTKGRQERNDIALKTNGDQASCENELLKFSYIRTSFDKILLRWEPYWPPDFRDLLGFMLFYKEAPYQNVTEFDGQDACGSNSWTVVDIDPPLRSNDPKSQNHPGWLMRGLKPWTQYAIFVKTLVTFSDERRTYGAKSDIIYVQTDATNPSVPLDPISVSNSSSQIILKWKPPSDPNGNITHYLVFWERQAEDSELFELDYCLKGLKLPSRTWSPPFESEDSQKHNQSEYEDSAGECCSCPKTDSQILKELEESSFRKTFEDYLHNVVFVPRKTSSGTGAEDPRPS
Insulin receptor (Homo sapiens), sequence (P06213 763-1382 limits assumed): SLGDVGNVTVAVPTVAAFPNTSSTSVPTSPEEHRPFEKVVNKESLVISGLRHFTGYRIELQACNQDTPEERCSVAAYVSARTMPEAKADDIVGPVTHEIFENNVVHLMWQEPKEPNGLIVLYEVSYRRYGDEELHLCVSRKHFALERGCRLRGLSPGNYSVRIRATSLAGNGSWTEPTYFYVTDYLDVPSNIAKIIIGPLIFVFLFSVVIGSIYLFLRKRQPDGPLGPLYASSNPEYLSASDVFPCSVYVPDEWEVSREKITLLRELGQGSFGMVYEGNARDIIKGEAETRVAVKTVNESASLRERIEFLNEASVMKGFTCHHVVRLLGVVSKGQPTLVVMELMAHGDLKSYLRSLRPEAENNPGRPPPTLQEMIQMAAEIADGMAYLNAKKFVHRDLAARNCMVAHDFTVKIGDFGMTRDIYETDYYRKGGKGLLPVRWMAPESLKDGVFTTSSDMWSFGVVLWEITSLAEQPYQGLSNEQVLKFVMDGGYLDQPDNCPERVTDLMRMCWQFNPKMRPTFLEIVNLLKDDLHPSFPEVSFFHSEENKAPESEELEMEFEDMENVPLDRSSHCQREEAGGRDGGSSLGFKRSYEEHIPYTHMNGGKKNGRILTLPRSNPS
Fibroblast growth factor receptor 4 (Homo sapiens), sequence (P22455 22-802 limits assumed): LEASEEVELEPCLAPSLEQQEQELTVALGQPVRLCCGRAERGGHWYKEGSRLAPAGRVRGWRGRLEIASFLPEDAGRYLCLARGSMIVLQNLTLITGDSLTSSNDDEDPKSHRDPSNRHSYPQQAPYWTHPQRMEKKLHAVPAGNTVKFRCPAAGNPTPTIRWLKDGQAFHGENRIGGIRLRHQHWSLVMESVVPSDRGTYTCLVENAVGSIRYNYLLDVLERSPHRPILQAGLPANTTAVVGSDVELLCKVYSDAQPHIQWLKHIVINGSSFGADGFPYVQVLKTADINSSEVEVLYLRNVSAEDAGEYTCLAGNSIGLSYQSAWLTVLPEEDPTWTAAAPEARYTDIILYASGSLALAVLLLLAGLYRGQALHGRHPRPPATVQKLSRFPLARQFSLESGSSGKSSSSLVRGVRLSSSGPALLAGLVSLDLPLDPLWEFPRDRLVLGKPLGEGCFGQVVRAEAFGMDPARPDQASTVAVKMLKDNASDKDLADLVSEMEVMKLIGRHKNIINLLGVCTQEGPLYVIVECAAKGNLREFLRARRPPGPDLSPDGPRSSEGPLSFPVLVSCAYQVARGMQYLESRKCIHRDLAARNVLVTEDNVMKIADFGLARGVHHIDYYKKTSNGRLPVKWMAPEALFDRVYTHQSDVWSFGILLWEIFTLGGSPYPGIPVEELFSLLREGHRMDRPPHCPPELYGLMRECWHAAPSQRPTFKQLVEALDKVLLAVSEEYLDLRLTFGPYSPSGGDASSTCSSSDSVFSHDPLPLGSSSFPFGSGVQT
Serine/threonine-protein kinase PLK1 (Homo sapiens), sequence (P53350 whole entry): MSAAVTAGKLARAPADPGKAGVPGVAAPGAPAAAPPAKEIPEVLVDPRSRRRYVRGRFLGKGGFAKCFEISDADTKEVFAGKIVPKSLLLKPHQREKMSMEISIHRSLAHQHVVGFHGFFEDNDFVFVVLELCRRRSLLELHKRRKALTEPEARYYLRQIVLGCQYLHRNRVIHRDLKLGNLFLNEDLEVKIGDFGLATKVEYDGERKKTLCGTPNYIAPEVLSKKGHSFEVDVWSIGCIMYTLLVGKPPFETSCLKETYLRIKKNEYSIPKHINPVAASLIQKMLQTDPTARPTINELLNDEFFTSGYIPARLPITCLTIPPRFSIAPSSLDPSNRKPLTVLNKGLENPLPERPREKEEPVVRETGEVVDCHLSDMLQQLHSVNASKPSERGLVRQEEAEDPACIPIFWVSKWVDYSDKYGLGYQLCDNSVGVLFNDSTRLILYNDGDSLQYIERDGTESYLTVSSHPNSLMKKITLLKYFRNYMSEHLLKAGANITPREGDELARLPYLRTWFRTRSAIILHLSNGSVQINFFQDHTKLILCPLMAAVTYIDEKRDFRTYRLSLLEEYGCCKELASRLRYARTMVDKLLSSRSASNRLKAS
Mitogen-activated protein kinase 8 (Homo sapiens), sequence (P45983 whole entry): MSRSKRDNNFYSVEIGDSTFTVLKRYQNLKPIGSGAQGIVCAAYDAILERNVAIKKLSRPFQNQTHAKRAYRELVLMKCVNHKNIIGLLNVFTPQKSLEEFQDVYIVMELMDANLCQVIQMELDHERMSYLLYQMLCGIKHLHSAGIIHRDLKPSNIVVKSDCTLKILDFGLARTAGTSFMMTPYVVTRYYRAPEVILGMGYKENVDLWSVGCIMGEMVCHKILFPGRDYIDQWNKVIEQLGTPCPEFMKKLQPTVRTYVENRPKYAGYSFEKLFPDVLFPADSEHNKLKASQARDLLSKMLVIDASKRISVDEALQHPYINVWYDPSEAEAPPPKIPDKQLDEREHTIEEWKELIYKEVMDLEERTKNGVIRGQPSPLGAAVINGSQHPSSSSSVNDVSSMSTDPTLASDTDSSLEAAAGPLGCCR

On to `COc1ccc(-c2nc3cc(-c4csc(C(=O)NCC(C)(C)C)c4)cnc3[nH]2)cc1`, for which the Activity was found to be 98% in test [1]; 96% in test [2]; 95% in [3]; 90% in test [4]; 87% in test [5]; 80% in test [6]. Further, the Activity came out at 70% in [7]; 64% in test [8]; 53% in [9]; 37% in test [10]; 24% in test [11]; 5% in test [12]. Further, the Activity in [13] turned out to be 122%; in [14], 110%; in test [15], 109%; in test [16], 102%.

For `COc1ccc(-c2nc3cc(-c4csc(C(=O)NCCC(C)C)c4)cnc3[nH]2)cc1`, the Activity in test [1] amounted to 98%; in test [2] it was 100%; in [3] it was 102%; in [4], 98%; in test [5], 95%; in test [6], 91%. Moreover, the Activity in [7] was 80%; in test [8], 31%; in test [9], 40%; in [10], 23%; in test [11], 22%; in [12], 1%. Moreover, the Activity in test [13] was determined as 116%; in test [14], 112%; in test [15], 102%; in [16], 110%.

In the case of `COc1ccc(-c2nc3cc(-c4csc(C(=O)NCC(C)C)c4)cnc3[nH]2)cc1`, the Activity in test [1] is 117%; in [2], 109%; in test [3], 92%; in [4], 89%; in test [5], 85%; in test [6], 95%. Besides, the Activity in [7] came out at 92%; in test [8], 44%; in [9], 42%; in test [10], 30%; in test [11] it was 10%; in test [12], 4%. Moreover, the Activity came out at 115% in test [13], 105% in test [14], 109% in test [15] and 104% in [16].
